Data on one compound can be found in patent US10815219B2, “2,4-diaminoquinazoline derivatives for inhibiting endoplasmic reticulum (ER) stress” (The Board of Regents of the University of Oklahoma, priority 2017, dated 2020).

The subject of experiment [1] is INS-1 cells. In words: MTT viability assay, INS-1 cells treated with Tm. Particulars: Tm 0.1 μg/mL, 72 h, FIG. 3A. Format: cell-based, rat. The text has this: To rule out the possibility of an ATP-specific (rather than viability) effect of the compounds, we used the MTT assay, which measures the activity of NAD(P)H-dependent cellular oxidoreductase enzymes, as an orthogonal method to measure cell viability. […] To confirm that the protective effect of 9c on β cells is not INS-1 cell-specific, another β cell line, βTC6, was used. […] To determine whether the protective effect of 9c on β cells is specific to Tm-induced stress, we used another ER stressor, BFA, which inhibits a key guanine nucleotide exchange factor essential for the transport of proteins from the ER to the Golgi, to treat INS-1 cells.
INS-1 cells or βTC6 cells were seeded at 3×10^3 cells/well in a 384-well plate and treated with compounds at the indicated concentrations. After 3 d treatment, the medium was aspirated and 10 μl of MTT reagent (Cayman Chemical, MI, USA, prepared according to manufacturer's instruction) to each well was added and mixed gently for one minute on an orbital shaker. The cells were then incubated for three hours at 37° C. in a CO2 incubator. After incubation, add 100 μl of crystal dissolving solution to each well, and incubate for 4 hours in a 37° C. CO2 incubator. Viability will be measured for the absorbance to each sample at 570 nm using EnVision multilabel plate reader (PerkinElmer, MA, USA).

Experiment [2] deals with INS-1 cells. In words: Glucose-stimulated insulin secretion in Tm-treated INS-1 cells. Format: cell-based, rat. Particulars: Tm 0.1 μg/mL, 24 h, 25 mM glucose, FIG. 5E. An excerpt: ER stress also impairs the most important function of β cells: the biosynthesis and secretion of insulin. Multiple steps of insulin synthesis and secretion are impaired under ER stress; they include insulin gene transcription, insulin mRNA stability, protein translation, and the insulin protein secretory process. First, we examined whether compound 9c could rescue Tm-suppressed mRNA levels of insulin genes. […] Second, we examined whether compound 9c affects the expression of β cell transcription factors PDX1 and MafA, which control β cell identity and the expression of insulin genes. Chronic exposure to supraphysiologic concentrations of glucose and its associated ER stress cause the down-regulation of expression of PDX1 and MafA. Consistent with this notion, Tm decreased the levels of PDX1 and MafA mRNA expression levels in INS-1 cells. […] Next, we explored whether compound 9c re-establishes Tm-impaired glucose-stimulated insulin secretion (GSIS).
INS-1 or primary human islet cells were plated in 96-well plates. […] The secreted insulin was measured with insulin ELISA kits (for mouse insulin from Millipore and for human insulin from LifeTech). Cells were lysed with RIPA buffer (50 mM Tris HCl pH 7.4, 1% NP-40, 0.25% sodium deoxycholate, 150 mM NaCl), and total cellular protein was determined with a Bradford protein assay. […]

In experiment [3] the test system is Bip and GRP94 mRNA. Kind of experiment: qRT-PCR of Bip and GRP94 in Tm-treated INS-1 cells. Format: cell-based, rat. Particulars: Tm 0.1 μg/mL, 9c 20 μM, FIG. 7A, B. As to the method:
We then asked whether 9c affects the activation of ATF6 in β cells under ER stress. Activated ATF6 acts as a homodimer or as an ATF6-XBP1s heterodimer to control the up-regulation of select UPR target genes including the chaperone proteins BiP and GRP94. We evaluated the effect of 9c on the mRNA levels of chaperones Bip and GRP94 in β cells in the presence of Tm.
(§1) INS-1 cells were seeded at 4×10^5 cells/well in 6-well plates and treated with compounds for the indicated times. Total RNA was extracted using TRIzol reagent (Invitrogen, Carlsbad, Calif.) according to the manufacturer's protocol, and 2 μg of total RNA was reverse transcribed using a Superscript kit (Invitrogen). Real-time PCR was performed in 96-well format using SYBR Select Master Mix (Applied Biosystems, Foster City, Calif.) with an ABI 7500 PCR system (Applied Biosystems). The primer sequences used are shown in U.S. Ser. No. 62/542,408, Aug. 8, […].

The subject of experiment [4] is ATF4 and CHOP mRNA. In words: qRT-PCR of ATF4 and CHOP in Tm-treated INS-1 cells. Particulars: Tm 0.1 μg/mL, 9c 20 μM, FIG. 8A, B. Format: cell-based, rat.
From the text: We then determined the effect of 9c on the activation of the PERK pathway in β cells under ER stress. Activated PERK phosphorylates eukaryotic translation initiator factor 2a (eIF2α), which in turn attenuates general protein synthesis to relieve ER load. EIF2α phosphorylation also allows the selective translation of ATF4 mRNA, which encodes a transcription factor that induces the expression of the pro-apoptotic gene C/EBP-homologous protein (CHOP). Thus, we used ATF4 and CHOP expression levels as markers of PERK pathway activation. […] Together, our results that 9c inhibited the ER stress-mediated activation of all three UPR pathways indicate that 9c protects β cell survival by alleviating ER stress.
as §1

The subject of experiment [5] is primary human islets. Kind of experiment: Glucose-stimulated insulin secretion in Tm-treated primary human islets. The settings on record: Tm 1 μg/mL, 48 h, 20 mM glucose, FIG. 9C. Format: cell-based. The text has this: We determined whether 9c suppresses the apoptosis of primary human β cells induced by Tm treatment as assessed by TUNEL, which detects fragmentation of DNA, a marker of apoptotic cell death. […] Next, we investigated whether 9c restored the Tm-induced insulin secretion defect. […] ER stress induces activation of three branches of UPR (PERK, IRE1α, and ATF6), leading to up-regulation of ATF4, XBP1s, Bip, […], CHOP and eventual activation caspase 3 and cell apoptosis, while diminishing the expression of PDX1, MAFA and insulin genes, leading to β cell dysfunction. Compound 9c protects β cell against ER stress-mediated dysfunction and death by down-regulating ATF4, XBP1s, Bip, GRP94, CHOP, and caspase 3 and up-regulating PDX1, MAFA and insulin genes.
INS-1 or primary human islet cells were plated in 96-well plates. The second day, Tm and compound 9c were added and maintained for 24 h (INS-1) or 48 h (human islets). […] The secreted insulin was measured with insulin ELISA kits (for mouse insulin from Millipore and for human insulin from LifeTech). Cells were lysed with RIPA buffer (50 mM Tris HCl pH 7.4, 1% NP-40, 0.25% sodium deoxycholate, 150 mM NaCl), and total cellular protein was determined with a Bradford protein assay. […]

In the case of `COc1ccc(CNc2nc(N3CCCCC3CO)nc3ccccc23)cc1` (racemic) [Compound 9c, (1-(4-((4-methoxybenzyl)amino)quinazolin-2-yl)piperidin-2-yl)methanol], the “viability of INS-1 cells (MTT)” value in experiment [1] was “increase in viability of INS-1 cells”. In addition, the “glucose-stimulated insulin secretion (GSIS)” value in experiment [2] was “significantly rescued the GSIS”; in experiment [5], “significantly reversed this effect and restored the Tm-impaired GSIS”. Further, the “Bip and GRP94 mRNA levels” value in experiment [3] is on record as “almost completely suppressed”. Besides, the “ATF4 and CHOP mRNA levels” value in experiment [4] was “decrease in both their levels”.
